# Assay results from PMC10364322, “Evaluation of chronic drug-induced electrophysiological and cytotoxic effects using human-induced pluripotent stem cell-derived cardiomyocytes (hiPSC-CMs)” (Frontiers in Pharmacology, 2023).
# Read-outs that look alike come from different tables or passages of the source.
# Columns and labels:
# [1] = system: hiPSC-CMs (iCell-Cardiomyocytes^2); experiment: MEA impedance (cytotoxicity readout) in hiPSC-CMs
# [2] = free therapeutic Cmax in humans; ref FDA-approved drug packages, PharmaPendium; cited from earlier work
# [3] = system: hiPSC-CMs (iCell-Cardiomyocytes^2)
# Outline: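 Monolayers of hiPSC-CMs on fibronectin-coated MEA plates, 50 K/well, kept at 37°C, 5% CO2; compounds added in 0.1% final DMSO after 5-min baseline. Field potential and impedance parameters expressed as mean ± SD percent change from baseline; arrhythmic events noted; cytotoxicity fluorescence normalized to DMSO, Kruskal-Wallis.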
smiles,measurement,setting,value
COc1cc2c(Nc3ccc(Br)cc3F)ncnc2cc1OCC1CCN(C)CC1 [Vandetanib],"Imp (impedance), % change from baseline","[1]; 0.1 µM, 2h",-3±2%
same,"Imp (impedance), % change from baseline","[1]; 0.1 µM, 24h",-9±2%
same,"Imp (impedance), % change from baseline","[1]; 0.1 µM, 48h",-7±2%
same,"Imp (impedance), % change from baseline","[1]; 0.1 µM, 72h",-9±3%
same,"Imp (impedance), % change from baseline","[1]; 0.1 µM, 96h",-6±3%
same,"Imp (impedance), % change from baseline","[1]; 0.3 µM, 2h",-2±1%
same,"Imp (impedance), % change from baseline","[1]; 0.3 µM, 24h",-9±4%
same,"Imp (impedance), % change from baseline","[1]; 0.3 µM, 48h",-3±3%
same,"Imp (impedance), % change from baseline","[1]; 0.3 µM, 72h",-5±4%
same,"Imp (impedance), % change from baseline","[1]; 0.3 µM, 96h",-6±5%
same,"Imp (impedance), % change from baseline","[1]; 1 µM, 2h",-3±2%
same,"Imp (impedance), % change from baseline","[1]; 1 µM, 24h",-11±3%
same,"Imp (impedance), % change from baseline","[1]; 1 µM, 48h",-13±4%
same,"Imp (impedance), % change from baseline","[1]; 1 µM, 72h",-20±4 %
same,"Imp (impedance), % change from baseline","[1]; 1 µM, 96h",-20±5%
same,"Imp (impedance), % change from baseline","[1]; 3 µM, 72h",-44±7 %
same,"Imp (impedance), % change from baseline","[1]; 3 µM, 96h",-53±5 %
same,"Imp (impedance), % change from baseline","[1]; 3 µM, 2h",2±4%
same,"Imp (impedance), % change from baseline","[1]; 3 µM, 24h",-16±3%
same,"Imp (impedance), % change from baseline","[1]; 3 µM, 48h",-30±5 %
same,Free Cmax,[2],400 nM
same,"BR (beating rate), % change from baseline","[3]; 0.1 µM, 2h",0±4%
same,"Beating below threshold, number of observations/total well numbers","[3]; 0.1 µM, 2h",0/5
same,"Cessation of beating, number of observations/total well numbers","[3]; 0.1 µM, 2h",0/5
same,"EAD, number of observations/total well numbers","[3]; 0.1 µM, 2h",0/5
same,"FPDc (field-potential duration corrected by beat-rate), % change from baseline","[3]; 0.1 µM, 2h",15.3±2.3 %
same,"Flat T-wave-like, number of observations/total well numbers","[3]; 0.1 µM, 2h",0/5
same,"BR (beating rate), % change from baseline","[3]; 0.1 µM, 24h",-9±5%
same,"Beating below threshold, number of observations/total well numbers","[3]; 0.1 µM, 24h",0/5
same,"Cessation of beating, number of observations/total well numbers","[3]; 0.1 µM, 24h",0/5
same,"EAD, number of observations/total well numbers","[3]; 0.1 µM, 24h",0/5
same,"FPDc (field-potential duration corrected by beat-rate), % change from baseline","[3]; 0.1 µM, 24h",44.1±5.9 %
same,"Flat T-wave-like, number of observations/total well numbers","[3]; 0.1 µM, 24h",0/5
same,"BR (beating rate), % change from baseline","[3]; 0.1 µM, 48h",-14±2 %
same,"Beating below threshold, number of observations/total well numbers","[3]; 0.1 µM, 48h",0/5
same,"Cessation of beating, number of observations/total well numbers","[3]; 0.1 µM, 48h",0/5
same,"EAD, number of observations/total well numbers","[3]; 0.1 µM, 48h",0/5
same,"FPDc (field-potential duration corrected by beat-rate), % change from baseline","[3]; 0.1 µM, 48h",40.3±1.1 %
same,"Flat T-wave-like, number of observations/total well numbers","[3]; 0.1 µM, 48h",0/5
same,"BR (beating rate), % change from baseline","[3]; 0.1 µM, 72h",-17±2 %
same,"Beating below threshold, number of observations/total well numbers","[3]; 0.1 µM, 72h",0/5
same,"Cessation of beating, number of observations/total well numbers","[3]; 0.1 µM, 72h",0/5
same,"EAD, number of observations/total well numbers","[3]; 0.1 µM, 72h",0/5
same,"FPDc (field-potential duration corrected by beat-rate), % change from baseline","[3]; 0.1 µM, 72h",52.6±4.9 %
same,"Flat T-wave-like, number of observations/total well numbers","[3]; 0.1 µM, 72h",0/5
same,"BR (beating rate), % change from baseline","[3]; 0.1 µM, 96h",-19±3%
same,"Beating below threshold, number of observations/total well numbers","[3]; 0.1 µM, 96h",0/5
same,"Cessation of beating, number of observations/total well numbers","[3]; 0.1 µM, 96h",0/5
same,"EAD, number of observations/total well numbers","[3]; 0.1 µM, 96h",0/5
same,"FPDc (field-potential duration corrected by beat-rate), % change from baseline","[3]; 0.1 µM, 96h",57.6±5.7 %
same,"Flat T-wave-like, number of observations/total well numbers","[3]; 0.1 µM, 96h",0/5
same,"BR (beating rate), % change from baseline","[3]; 0.3 µM, 2h",-5±4%
same,"Beating below threshold, number of observations/total well numbers","[3]; 0.3 µM, 2h",0/5
same,"Cessation of beating, number of observations/total well numbers","[3]; 0.3 µM, 2h",0/5
same,"EAD, number of observations/total well numbers","[3]; 0.3 µM, 2h",0/5
same,"FPDc (field-potential duration corrected by beat-rate), % change from baseline","[3]; 0.3 µM, 2h",28.5±9.1 %
same,"Flat T-wave-like, number of observations/total well numbers","[3]; 0.3 µM, 2h",0/5
same,"BR (beating rate), % change from baseline","[3]; 0.3 µM, 24h",-29±5 %
same,"Beating below threshold, number of observations/total well numbers","[3]; 0.3 µM, 24h",0/5
same,"Cessation of beating, number of observations/total well numbers","[3]; 0.3 µM, 24h",0/5
same,"EAD, number of observations/total well numbers","[3]; 0.3 µM, 24h",1/5
same,"FPDc (field-potential duration corrected by beat-rate), % change from baseline","[3]; 0.3 µM, 24h",112±14.9 %
same,"Flat T-wave-like, number of observations/total well numbers","[3]; 0.3 µM, 24h",1/5
same,"BR (beating rate), % change from baseline","[3]; 0.3 µM, 48h",-31±2 %
same,"Beating below threshold, number of observations/total well numbers","[3]; 0.3 µM, 48h",0/5
same,"Cessation of beating, number of observations/total well numbers","[3]; 0.3 µM, 48h",0/5
same,"EAD, number of observations/total well numbers","[3]; 0.3 µM, 48h",0/5
same,"FPDc (field-potential duration corrected by beat-rate), % change from baseline","[3]; 0.3 µM, 48h",99.2±21.9 %
same,"Flat T-wave-like, number of observations/total well numbers","[3]; 0.3 µM, 48h",1/5
same,"BR (beating rate), % change from baseline","[3]; 0.3 µM, 72h",-40±3 %
same,"Beating below threshold, number of observations/total well numbers","[3]; 0.3 µM, 72h",0/5
same,"Cessation of beating, number of observations/total well numbers","[3]; 0.3 µM, 72h",0/5
same,"EAD, number of observations/total well numbers","[3]; 0.3 µM, 72h",0/5
same,"FPDc (field-potential duration corrected by beat-rate), % change from baseline","[3]; 0.3 µM, 72h",126.3±24.4 %
same,"Flat T-wave-like, number of observations/total well numbers","[3]; 0.3 µM, 72h",1/5
same,"BR (beating rate), % change from baseline","[3]; 0.3 µM, 96h",-43±6 %
same,"Beating below threshold, number of observations/total well numbers","[3]; 0.3 µM, 96h",0/5
same,"Cessation of beating, number of observations/total well numbers","[3]; 0.3 µM, 96h",0/5
same,"EAD, number of observations/total well numbers","[3]; 0.3 µM, 96h",0/5
same,"FPDc (field-potential duration corrected by beat-rate), % change from baseline","[3]; 0.3 µM, 96h",144.1±35.5 %
same,"Flat T-wave-like, number of observations/total well numbers","[3]; 0.3 µM, 96h",1/5
same,"BR (beating rate), % change from baseline","[3]; 1 µM, 2h",-28±5 %
same,"Beating below threshold, number of observations/total well numbers","[3]; 1 µM, 2h",0/5
same,"Cessation of beating, number of observations/total well numbers","[3]; 1 µM, 2h",0/5
same,"EAD, number of observations/total well numbers","[3]; 1 µM, 2h",0/5
same,"FPDc (field-potential duration corrected by beat-rate), % change from baseline","[3]; 1 µM, 2h",110.2±0 %
same,"Flat T-wave-like, number of observations/total well numbers","[3]; 1 µM, 2h",4/5
same,"BR (beating rate), % change from baseline","[3]; 1 µM, 24h",-59±5 %
same,"Beating below threshold, number of observations/total well numbers","[3]; 1 µM, 24h",0/5
same,"Cessation of beating, number of observations/total well numbers","[3]; 1 µM, 24h",0/5
same,"EAD, number of observations/total well numbers","[3]; 1 µM, 24h",1/5
same,"Flat T-wave-like, number of observations/total well numbers","[3]; 1 µM, 24h",5/5
same,"BR (beating rate), % change from baseline","[3]; 1 µM, 48h",-65±2 %
same,"Beating below threshold, number of observations/total well numbers","[3]; 1 µM, 48h",0/5
same,"Cessation of beating, number of observations/total well numbers","[3]; 1 µM, 48h",0/5
same,"EAD, number of observations/total well numbers","[3]; 1 µM, 48h",2/5
same,"Flat T-wave-like, number of observations/total well numbers","[3]; 1 µM, 48h",5/5
same,"BR (beating rate), % change from baseline","[3]; 1 µM, 72h",-68±2 %
same,"Beating below threshold, number of observations/total well numbers","[3]; 1 µM, 72h",1/5
same,"Cessation of beating, number of observations/total well numbers","[3]; 1 µM, 72h",1/5
same,"EAD, number of observations/total well numbers","[3]; 1 µM, 72h",0/5
same,"Flat T-wave-like, number of observations/total well numbers","[3]; 1 µM, 72h",3/5
same,"BR (beating rate), % change from baseline","[3]; 1 µM, 96h",-68±0 %
same,"Beating below threshold, number of observations/total well numbers","[3]; 1 µM, 96h",0/5
same,"Cessation of beating, number of observations/total well numbers","[3]; 1 µM, 96h",4/5
same,"EAD, number of observations/total well numbers","[3]; 1 µM, 96h",0/5
same,"Flat T-wave-like, number of observations/total well numbers","[3]; 1 µM, 96h",1/5
same,time point from which cessation of beating occurred in all wells,[3]; 3 µM,24 h
same,"Beating below threshold, number of observations/total well numbers","[3]; 3 µM, 72h",0/5
same,"Cessation of beating, number of observations/total well numbers","[3]; 3 µM, 72h",5/5
same,"EAD, number of observations/total well numbers","[3]; 3 µM, 72h",0/5
same,"Flat T-wave-like, number of observations/total well numbers","[3]; 3 µM, 72h",0/5
same,"Beating below threshold, number of observations/total well numbers","[3]; 3 µM, 96h",0/5
same,"Cessation of beating, number of observations/total well numbers","[3]; 3 µM, 96h",5/5
same,"EAD, number of observations/total well numbers","[3]; 3 µM, 96h",0/5
same,"Flat T-wave-like, number of observations/total well numbers","[3]; 3 µM, 96h",0/5
same,"BR (beating rate), % change from baseline","[3]; 3 µM, 2h",-58±4 %
same,"Beating below threshold, number of observations/total well numbers","[3]; 3 µM, 2h",0/5
same,"Cessation of beating, number of observations/total well numbers","[3]; 3 µM, 2h",0/5
same,"EAD, number of observations/total well numbers","[3]; 3 µM, 2h",0/5
same,EAD-like events,"[3]; 3 µM, 2h",EAD-like events occurred
same,"Flat T-wave-like, number of observations/total well numbers","[3]; 3 µM, 2h",5/5
same,"BR (beating rate), % change from baseline","[3]; 3 µM, 24h",-71±1 %
same,"Beating below threshold, number of observations/total well numbers","[3]; 3 µM, 24h",0/5
same,"Cessation of beating, number of observations/total well numbers","[3]; 3 µM, 24h",3/5
same,"EAD, number of observations/total well numbers","[3]; 3 µM, 24h",0/5
same,"Flat T-wave-like, number of observations/total well numbers","[3]; 3 µM, 24h",2/5
same,"Beating below threshold, number of observations/total well numbers","[3]; 3 µM, 48h",1/5
same,"Cessation of beating, number of observations/total well numbers","[3]; 3 µM, 48h",4/5
same,"EAD, number of observations/total well numbers","[3]; 3 µM, 48h",0/5
same,"Flat T-wave-like, number of observations/total well numbers","[3]; 3 µM, 48h",0/5
